This is an account of results in US7291217B2, “Non-toxic corrosion-protection pigments based on rare earth elements” (University of Dayton, priority 2002, dated 2007).

Where “and” joins values, the source holds several entries; their conditions need not be identical. Identical values can stand only once.

For data set [1] the following is noted: in acid solution (pH 0); reduction to the trivalent ion; cited from earlier work.
The nature of data set [2]: Static salt fog accelerated corrosion test (ASTM B-117) of PVB wash primer containing the pigment, rated by ASTM D-1654. The note with it: ASTM D-1654 rating; for B-117 Proc. A: failure at scribe; for B-117 Proc. B: unscribed areas. On the procedure: (§1) The corrosion-inhibiting performance of CeIV pigments was evaluated by incorporating them into primer paint formulations. […] The wash primer is composed of a resin, an acid, a corrosion-inhibiting pigment, powdered talc, and carbon lampblack. The acid content of this wash primer provides a rigorous initial test of the stability and performance of the pigments. Other, more benign, polymer-based binder and resin systems might not separate the compounds based on their performance as effectively or as rapidly.
(§2) PVB was used exclusively throughout testing to avoid preparation and compositional complications during analysis of pigment performance. However, the invention is not limited to the use of PVB.
(§3) A small amount (0.2 g) of powdered talc (magnesium silicate) “filler” was added. Lampblack was not added to these samples. These components were mixed thoroughly by hand and 3.8 grams of phosphoric acid diluent added with further mixing. This rough processing allowed direct comparisons of pigment performance to be made without complications due to powder treatments, modifications, and additives.
(§4) This is not the conventional paint application procedure for aluminum alloys. Under normal service conditions, aluminum alloys are first subjected to a hexavalent chromium-containing conversion coating prior to primer application. However, the conversion coating was omitted so that the performance of the pigment alone could be evaluated and not the synergistic effects of hexavalent chromium (in the conversion coating) or even of barrier films (in the phosphate or anodized coatings).
(§5) This accelerated corrosion test exposes samples to a constant salt-water fog and is a de facto test of solubility for corrosion inhibitors. […] This accelerated corrosion test exposes samples to a cycle of fog of dilute salt and ammonium sulfate at room temperature followed by forced-air drying at an elevated temperature.
(§6) After the paint dried for 24 hours, each plate was scribed with an X and the plate edges were sealed with PVC tape to eliminate corrosion edge effects.
(§7) Two visual observations are associated with this rating test. Procedure A involves a rating of the failure at the scribe—the representative creepage of corrosion away from the scribe. […] In this way, not only the bulk corrosion-inhibiting action of a pigment through the binder can be rated, but also its “throwing power”.

A short description of data set [3]: Cyclic Prohesion accelerated corrosion test (ASTM G-85.5) of PVB wash primer containing the pigment, rated by ASTM D-1654. The following applies: ASTM D-1654 rating; for G-85 Proc. A: failure at scribe; for G-85 Proc. B: unscribed areas. On the procedure:
as §1, §2, §3, §4, §5, §6, §7

[4] abbreviates: 2024-T3, 117 h, inhibitor conc. 1.86 × 10^−3 M (25% of Cr), two cells per column.
[5] abbreviates: 7075-T6, 117 h, inhibitor conc. 1.86 × 10^−3 M (25% of Cr), two cells per column.
Where [6] appears, read: 2024-T3, 139 h, inhibitor conc. 3.72 × 10^−3 M (50% of Cr), sample and duplicate.
[7] abbreviates: 7075-T6, 139 h, inhibitor conc. 3.72 × 10^−3 M (50% of Cr), sample and duplicate.
Where [8] appears, read: 2024-T3, 117 h, inhibitor conc. 7.44 × 10^−4 M (10% of Cr), sample and duplicate.
Setting [9] is: 7075-T6, 117 h, inhibitor conc. 7.44 × 10^−4 M (10% of Cr), sample and duplicate.
[10] abbreviates: 2024-T3, 139 h, inhibitor conc. 7.44 × 10^−4 M (10% of Cr), sample and duplicate.
[11] abbreviates: 7075-T6, 139 h, inhibitor conc. 7.44 × 10^−4 M (10% of Cr), sample and duplicate.
[12] abbreviates: 2024-T3, 144 h, inhibitor conc. 5.2 × 10^−4 M (7% of Cr), sample and duplicate.
The mark [13] stands for this setting: 7075-T6, 144 h, inhibitor conc. 5.2 × 10^−4 M (7% of Cr), sample and duplicate.
The mark [14] stands for this setting: 2024-T3, 144 h, inhibitor conc. 3.72 × 10^−3 M (50% of Cr), sample and duplicate.
The mark [15] stands for this setting: 7075-T6, 144 h, inhibitor conc. 3.72 × 10^−3 M (50% of Cr), sample and duplicate.

As for `[Ce+4]` [Ce^+4], in data set [1], the oxidation-reduction potential is given as 1.72 V.

Regarding `CCCCCCCC[N+](C)(CCCCCCCC)CCCCCCCC.CCCCCCCC[N+](C)(CCCCCCCC)CCCCCCCC.O=[N+]([O-])[O-].O=[N+]([O-])[O-].O=[N+]([O-])[O-].O=[N+]([O-])[O-].O=[N+]([O-])[O-].O=[N+]([O-])[O-].[Ce+4]` [Nitrate/Adogen 464], in data set [2] (setting [4]), the “B-117 Proc. A” value is reported as 5 and the “B-117 Proc. B” value is recorded as 5. Also, in data set [2] (setting [5]), the “B-117 Proc. A” value was 5; the “B-117 Proc. B” value is 3 and 5. Also, in data set [3] (setting [4]), the “G-85 Proc. A” value was found to be 7 and the “G-85 Proc. B” value was found to be 6. Also, in data set [3] (setting [5]), the “G-85 Proc. A” value is reported as 7 and the “G-85 Proc. B” value worked out at 6.

For the molecule `CCCC[N+](CCCC)(CCCC)CCCC.CCCC[N+](CCCC)(CCCC)CCCC.O=[N+]([O-])[O-].O=[N+]([O-])[O-].O=[N+]([O-])[O-].O=[N+]([O-])[O-].O=[N+]([O-])[O-].O=[N+]([O-])[O-].[Ce+4]` [Nitrate/NBu4^+], in data set [2] (setting [4]), the “B-117 Proc. A” value was found to be 7; the “B-117 Proc. B” value is 5 and 6. In data set [2] (setting [5]), the “B-117 Proc. A” value is 7 and 6; the “B-117 Proc. B” value was 6. In data set [3] (setting [4]), the “G-85 Proc. A” value was 9 and the “G-85 Proc. B” value stood at 8. Besides, in data set [3] (setting [5]), the “G-85 Proc. A” value is reported as 9 and the “G-85 Proc. B” value came out at 8.

Consider `CC[N+](CC)(CC)CC.CC[N+](CC)(CC)CC.O=[N+]([O-])[O-].O=[N+]([O-])[O-].O=[N+]([O-])[O-].O=[N+]([O-])[O-].O=[N+]([O-])[O-].O=[N+]([O-])[O-].[Ce+4]` [Nitrate/NEt4^+], for which, in data set [2] (setting [4]), the “B-117 Proc. A” value stood at 6 and the “B-117 Proc. B” value is 3. In data set [2] (setting [5]), the “B-117 Proc. A” value is 6 and 5; the “B-117 Proc. B” value was 4. Besides, in data set [3] (setting [4]), the “G-85 Proc. A” value was 9 and 10; the “G-85 Proc. B” value was 7 and 8. In addition, in data set [3] (setting [5]), the “G-85 Proc. A” value was 10 and the “G-85 Proc. B” value is recorded as 8.

Regarding `C[N+](C)(C)C.C[N+](C)(C)C.O=[N+]([O-])[O-].O=[N+]([O-])[O-].O=[N+]([O-])[O-].O=[N+]([O-])[O-].O=[N+]([O-])[O-].O=[N+]([O-])[O-].[Ce+4]` [Nitrate/NMe4^+], the “G-85 Proc. A” value is 8 and 7 in data set [3] (setting [4]); 8 and 7 in data set [3] (setting [5]). For the same molecule, the “G-85 Proc. B” value in data set [3] (setting [4]) is 7 and 6; in data set [3] (setting [5]) it was 7 and 6.

In the case of `CCCCC[N+](CCCCC)(CCCCC)CCCCC.CCCCC[N+](CCCCC)(CCCCC)CCCCC.O=[N+]([O-])[O-].O=[N+]([O-])[O-].O=[N+]([O-])[O-].O=[N+]([O-])[O-].O=[N+]([O-])[O-].O=[N+]([O-])[O-].[Ce+4]` [Nitrate/NPe4^+], in data set [2] (setting [4]), the “B-117 Proc. A” value amounted to 6 and the “B-117 Proc. B” value came to 5. Also, in data set [2] (setting [5]), the “B-117 Proc. A” value amounted to 6 and the “B-117 Proc. B” value was found to be 6. Further, in data set [3] (setting [4]), the “G-85 Proc. A” value is recorded as 9 and the “G-85 Proc. B” value was 8. Further, in data set [3] (setting [5]), the “G-85 Proc. A” value amounted to 9 and the “G-85 Proc. B” value is reported as 7.

As to `CCC[N+](CCC)(CCC)CCC.CCC[N+](CCC)(CCC)CCC.O=[N+]([O-])[O-].O=[N+]([O-])[O-].O=[N+]([O-])[O-].O=[N+]([O-])[O-].O=[N+]([O-])[O-].O=[N+]([O-])[O-].[Ce+4]` [Nitrate/NPr4^+], in data set [2] (setting [4]), the “B-117 Proc. A” value is recorded as 7; the “B-117 Proc. B” value was 7 and 6. In data set [2] (setting [5]), the “B-117 Proc. A” value is reported as 7 and the “B-117 Proc. B” value was determined as 6. Moreover, in data set [3] (setting [4]), the “G-85 Proc. A” value was 9 and 10; the “G-85 Proc. B” value is 8 and 9. In data set [3] (setting [5]), the “G-85 Proc. A” value was 9 and 8; the “G-85 Proc. B” value is reported as 7.

ammonium 18-vanadatocerate: in data set [2] (setting [6]), the “B-117 Proc. A” value came to 7 and the “B-117 Proc. B” value stood at 6. For the same molecule, in data set [2] (setting [7]), the “B-117 Proc. A” value is 7 and the “B-117 Proc. B” value was determined as 6. In data set [3] (setting [6]), the “G-85 Proc. A” value was 7 and 8; the “G-85 Proc. B” value was 6 and 7. For the same molecule, in data set [3] (setting [7]), the “G-85 Proc. A” value was determined as 8; the “G-85 Proc. B” value is 6 and 7.

Regarding calcium 10-tungstocerate, the “B-117 Proc. A” value came to 3 in data set [2] (setting [8]) and 2 in data set [2] (setting [9]). The “G-85 Proc. A” value in data set [3] (setting [8]) and in data set [3] (setting [9]) was 7 each time. Moreover, the “G-85 Proc. B” value in data set [3] (setting [8]) and in data set [3] (setting [9]) was 6 each time.

Take calcium 11-phosphotungstocerate: the “B-117 Proc. A” value in data set [2] (setting [10]) was 6 and 5; in data set [2] (setting [11]) it was 4. In addition, the “B-117 Proc. B” value in data set [2] (setting [10]) was 4; in data set [2] (setting [11]), 3. The “G-85 Proc. A” value in data set [3] (setting [10]) was 8 and 7; in data set [3] (setting [11]), 6. Further, the “G-85 Proc. B” value in data set [3] (setting [10]) is 8 and 7; in data set [3] (setting [11]) it was 5 and 6.

On to calcium 12-molybdocerate, for which the “B-117 Proc. A” value was 6 and 7 in data set [2] (setting [12]); 7 in data set [2] (setting [13]). Moreover, the “B-117 Proc. B” value is 4 and 5 in data set [2] (setting [12]); 6 in data set [2] (setting [13]). Also, the “G-85 Proc. A” value in data set [3] (setting [12]) was 8 and 7; in data set [3] (setting [13]), 8 and 7. The “G-85 Proc. B” value was 6 in data set [3] (setting [12]); 7 and 5 in data set [3] (setting [13]).

As for lithium periodatocerate, in data set [2] (setting [14]), the “B-117 Proc. A” value is 6 and 5; the “B-117 Proc. B” value is 6 and 5. Further, in data set [2] (setting [15]), the “B-117 Proc. A” value turned out to be 4; the “B-117 Proc. B” value is 2 and 3. In data set [3] (setting [14]), the “G-85 Proc. A” value came out at 7 and the “G-85 Proc. B” value is given as 7. In addition, in data set [3] (setting [15]), the “G-85 Proc. A” value worked out at 7 and the “G-85 Proc. B” value stood at 7.

Turning to magnesium 10-tungstocerate, the “B-117 Proc. A” value is 5 in data set [2] (setting [8]); 5 and 4 in data set [2] (setting [9]). Also, the “B-117 Proc. B” value in data set [2] (setting [8]) and in data set [2] (setting [9]) was 2 throughout. Also, the “G-85 Proc. A” value is 9 in data set [3] (setting [8]) and 8 in data set [3] (setting [9]). The “G-85 Proc. B” value in data set [3] (setting [8]) is 8; in data set [3] (setting [9]), 7.

Take magnesium 11-phosphotungstocerate: in data set [2] (setting [10]), the “B-117 Proc. A” value is recorded as 6 and the “B-117 Proc. B” value came to 5. Also, in data set [2] (setting [11]), the “B-117 Proc. A” value stood at 5 and the “B-117 Proc. B” value was 5. For the same molecule, in data set [3] (setting [10]), the “G-85 Proc. A” value is reported as 7 and the “G-85 Proc. B” value is given as 6. Further, in data set [3] (setting [11]), the “G-85 Proc. A” value is reported as 7 and the “G-85 Proc. B” value came out at 6.
